From publication PMC9820444, “Design and Synthesis of Acridine-Triazole and Acridine-Thiadiazole Derivatives and Their Inhibitory Effect against Cancer Cells” (International Journal of Molecular Sciences, 2022)
Read-outs that look alike come from different tables or passages of the source. Marks after values point to notes of the source that are not given here.

What was measured:
[1] = tested on: human foreskin fibroblasts (HFF); assay: MTT antiproliferative assay, HFF; assay type: cell-based; conditions: read-out: Effect against cell viability (IC50), HFF
Procedure: (§1) All newly synthesized acridinyl derivatives (4–6) were screened for their anticancer activities in comparison to the reference compounds, 5-FU and cis-platinum. Compounds 4–6 were tested for their in vitro antitumor activities against HFF, MGC-803, BEL-7404, NCI-H460, and T24 tumor cell lines, and human normal liver cells (LO2), and the results are shown in Table 1. Most of the compounds had strong selective potency against MGC-803 and T24 cancer cells. […] In the T24 cell line assay, many compounds, especially the series of compound 4, had significant activity against T24. This implies that there is a significant increase in potency after the introduction of the aroyl thiourea group. […] To our delight, most 1,2,4-triazolethiones (5) and 1,2,4-thiadiazoles (6) have low toxicity to LO2 compared with the positive control.
(§2) Test samples, including compounds 4–6 and commercial classical anticancer drugs (5-FU and cis-platinum), were screened for their anti-cancer activity against HFF human foreskin fibroblast cells, MGC-803 human gastric cancer cells, BEL-7404 human hepatocellular carcinoma cells, NCI-H460 human large cell carcinoma cells, and T24 human bladder carcinoma cells using the 3-(4,5-dimethylthiazol-2-yl)-2,5-diphenyltetrazoliumbromide (MTT) assay method cited in the literature. The initial concentration of all the test samples was 100 μg/mL, which was serially diluted in complete medium with ten-fold dilutions to give six concentrations per compound. Their cytotoxicity was determined in 96-well flat bottomed microtiter plates. All the test samples were tested in triplicate. The results were expressed as the drug concentration that inhibited cell growth by 50% as compared to the controls (IC50). The IC50 values were calculated from regression lines obtained from the percent cell growth inhibition plotted as a function of the logarithm of the dose.

[2] = tested on: subintestinal veins (SIVs) in zebrafish embryos; assay: Zebrafish angiogenesis assay (subintestinal veins, NBT/BCIP staining); assay type: in vivo; conditions: 1 mg/mL
Source text: Currently, the zebrafish has emerged as a valuable model organism to substitute traditional models for studying angiogenesis inhibitors. The genes of zebrafish show 70–80% similarity to humans, and the vascular structure of zebrafish has high similarity to that of other vertebrates. Therefore, the subintestinal veins (SIVs) in the zebrafish embryos are used as evaluation indicators for anti-angiogenesis inhibitors. In this study, NBT/BCIP vascular staining was used to observe the angiogenesis effect of representative drugs (4h, 4f, 5d, 5h, 6g and 6h) in a zebrafish model. […] Compared with the blank control group, the area of the meshed pattern vessel and the number of vascular branches in the network decreased after the administration of compounds 4h, 5d, 5h and 6h.
The 24 hpf zebrafish embryos were dechorionated with a 1 gL^−1 pronase treatment and maintained in distilled water in 12-well cell culture plates (each well contained 20 embryos). A negative control group containing zebrafish embryos in distilled water and a vehicle treatment group that was treated with 2% dimethyl sulfoxide (DMSO) were prepared. The anti-angiogenic compounds were diluted to 1 mg/mL. After incubating at 28 °C for […], the embryos were immersed in 4% paraformaldehyde and dehydrated by gradient ethanol. Subsequently, the embryos were balanced in NTMT buffer (5 M NaCl + 1 M Tris [pH 9.0–9.5] + 1 M MgCl2+ 10% Tween), and nitrotetrazolium blue chloride (NBT) and p-toluidine salt (BCIP) staining were performed. To evaluate the effect of compounds on the angiogenesis of zebrafish embryos, the growth of embryonic sub-intestinal veins (SIVs) at 72 hpf was observed using an IX71 Olympus microscope (Hamburger, Germany). The length of the SIVs was calculated using the image J 1.8.0 software (Bethesda, MD, USA).

[3] = tested on: human gastric cancer cells-803 (MGC-803); assay: MTT antiproliferative assay, MGC-803; assay type: cell-based; conditions: read-out: Effect against cell viability (IC50), MGC-803
Procedure: as §1, §2

[4] = tested on: large cell lung cancer cells (NCI-H460); assay: MTT antiproliferative assay, NCI-H460; assay type: cell-based, human; conditions: read-out: Effect against cell viability (IC50), NCI-H460
Procedure: as §1, §2

[5] = tested on: hepatocellular carcinoma bel-7404 (BEL-7404); assay: MTT antiproliferative assay, BEL-7404; assay type: cell-based, human; conditions: read-out: Effect against cell viability (IC50), BEL-7404
Procedure: as §1, §2

[6] = tested on: zebrafish embryos; design: mortality rate of zebrafish embryos: dose or concentration left out as unconfirmed; conditions: for MAR (malformation rate) / MOR (mortality rate): zebrafish embryos 72 hpf
Procedure: In this experiment, 2% DMSO was used to dissolve the target products, and the abnormal rate (MAR) and mortality rate (MOR) of zebrafish embryos (72 hpf) were used for statistics.
The zebrafish embryos were collected at 6 hpf and randomly divided into naive control (embryos maintained in distilled water), vehicle control (embryos treated with 2% DMSO), and drug groups. Stock solutions of all drugs were prepared in 2% DMSO as a solubilizing agent and diluted to three concentrations (0.5 mg/mL, 1 mg/mL, and 2 mg/mL). Each group had 20 embryos per test concentration. […] Each compound was evaluated in three independent biological experiments.

[7] = tested on: bladder cancer cells (T24); assay: MTT antiproliferative assay, T24; assay type: cell-based, human; conditions: read-out: Effect against cell viability (IC50), T24
Procedure: as §1, §2

[8] = tested on: human normal liver cells (LO2); assay: Cytotoxicity against normal liver cells LO2; assay type: cell-based; conditions: MTT, read-out: Effect against cell viability (IC50), LO2
Procedure: as §1, §2

Structure (SMILES)	IC50 ([1]; Homo sapiens, Fibroblast) [µM]	IC50 ([3]; Homo sapiens, MGC-803, MTT) [µM]	IC50 ([4]; Homo sapiens) [µM]	melting point [°C]	IC50 ([5]; Homo sapiens) [µM]	IC50 ([7]; Homo sapiens) [µM]	IC50 ([8]; Homo sapiens) [µM]	other results
COc1ccc2[nH]c3ccccc3c(=NC(=S)NNC(=O)c3ccncc3)c2c1 [4a, 1-2′-methoxyl acridinyl-3-4′-pyridinamide thiourea]								IC50 [1]: 75.8 ± 3.52 µM; area of blood vessels ([2]; zebrafish embryos, additional blood vessels were formed on the blood vessel edge): could reduce the area of blood vessels; IC50 ([3]; MTT): 10.9 ± 1.82 µM; IC50 [4]: 36.4 ± 3.12 µM; IC50 [5]: 26.9 ± 2.58 µM; MAR (malformation rate) ([6]; 1 mg/mL): 85% ^c; MOR (mortality rate) ([6]; 1 mg/mL): 15% ^c; MAR (malformation rate) ([6]; 1.5 mg/mL): 60% ^c; MOR (mortality rate) ([6]; 1.5 mg/mL): 40% ^c; MAR (malformation rate) ([6]; 2 mg/mL): 55% ^c; MOR (mortality rate) ([6]; 2 mg/mL): 45% ^c; total mortality and malformation rate ([6]; zebrafish embryos, 2.0 mg.L^−1): 100%; IC50 [7]: > 100 µM; IC50 [8]: 22 ± 1.71 µM
COc1ccc2nc3ccccc3c(-n3c(-c4ccncc4)n[nH]c3=S)c2c1 [5a, 4-(2-methoxyacridin-9-yl)-5-(pyridin-4-yl)-2,4-dihydro-3H-1,2,4-triazole-3-thione]	74.5 ± 4.03	22.4 ± 1.32	36.5 ± 2.96	272 to 273	22.1 ± 2.72	21.2 ± 2.72	42 ± 2.31	
COc1ccc2nc3ccccc3c(-n3c(-c4ccccc4)n[nH]c3=S)c2c1 [5b, 4-(2-methoxyacridin-9-yl)-5-phenyl-2,4-dihydro-3H-1,2,4-triazole-3-thione]	53.6 ± 2.78	15.8 ± 1.94	42.1 ± 3.74	259 to 261	27.7 ± 2.97	22.1 ± 1.85	58.3 ± 3.25	
Cc1ccc2nc3ccccc3c(-n3c(-c4ccncc4)n[nH]c3=S)c2c1 [5f, 4-(2-methylacridin-9-yl)-5-(pyridin-4-yl)-2,4-dihydro-3H-1,2,4-triazole-3-thione]	69.2 ± 2.16	15.2 ± 1.08	58.8 ± 3.22	264 to 268	44.2 ± 2.68	15.7 ± 1.58	46.8 ± 2.93	
COc1ccc(-n2c(-c3c4ccccc4nc4ccc(C)cc34)n[nH]c2=S)cc1 [5h, 4-(4-methoxyphenyl)-4-(2-methylacridin-9-yl)-2,4-dihydro-3H-1,2,4-triazole-3-thione]								IC50 [1]: 68.1 ± 2.64 µM; reduction in the vessel length (SIVs) compared to the mean vessel length for the controls ([2]; 72 hpf zebrafish embryos): ~50%; area of the meshed pattern vessel and number of vascular branches in the network ([2]; zebrafish embryos, compared with blank control group): decreased; IC50 ([3]; MTT): 10.9 ± 0.97 µM; IC50 [4]: 26.3 ± 2.51 µM; IC50 [5]: 40.3 ± 2.06 µM; mortality rate of zebrafish embryos [6]: ~0%; malformation rate of zebrafish embryos ([6]; 2.0 mg.L^−1): less than 15%; MAR (malformation rate) ([6]; 1 mg/mL): 5% ^a; MOR (mortality rate) ([6]; 1 mg/mL): 0%; MAR (malformation rate) ([6]; 1.5 mg/mL): 10% ^a; MOR (mortality rate) ([6]; 1.5 mg/mL): 0%; MAR (malformation rate) ([6]; 2 mg/mL): 15% ^a; MOR (mortality rate) ([6]; 2 mg/mL): 0%; IC50 [7]: 11.2 ± 1.16 µM; IC50 [8]: 37.7 ± 2.47 µM
Cc1ccc2nc3ccccc3c(-n3c(-c4ccc([N+](=O)[O-])cc4)n[nH]c3=S)c2c1 [5i, 4-(2-methylacridin-9-yl)-5-(4-nitrophenyl)-2,4-dihydro-3H-1,2,4-triazole-3-thione]	70.9 ± 2.99	8.92 ± 0.99	28.3 ± 1.32	245 to 247	31.7 ± 2.36	14.3 ± 1.27	> 100	
COC1=CC2C(=Nc3nnc(-c4ccccc4)s3)c3ccccc3NC2C=C1 (stereo not drawn) [6b, 7-methoxy-N-(5-phenyl-1,3,4-thiadiazol-2-yl)-10,10a-dihydroacridin-9(8aH)-imine]	79.3 ± 2.48	23.3 ± 1.97	47.5 ± 3.51	263 to 265	32.3 ± 2.82	49.4 ± 4.59	> 100	
COC1=CC2C(=Nc3nnc(-c4ccc(OC)cc4)s3)c3ccccc3NC2C=C1 (stereo not drawn) [6c, 7-methoxy-N-(5-(4-methoxyphenyl)-1,3,4-thiadiazol-2-yl)-10,10a-dihydroacridin-9(8aH)-imine]	65.2 ± 3.92	12.1 ± 1.22	30.2 ± 2.45	230 to 232	25.1 ± 2.15	24.3 ± 2.34	> 100	
COC1=CC2C(=Nc3nnc(-c4ccc([N+](=O)[O-])cc4)s3)c3ccccc3NC2C=C1 (stereo not drawn) [6d, 7-methoxy-N-(5-(4-nitrophenyl)-1,3,4-thiadiazol-2-yl)-10,10a-dihydroacridin-9(8aH)-imine]	> 100	26.7 ± 3.35	> 100	258 to 260	> 100	> 100	> 100	
CC1=CC2C(=Nc3nnc(-c4ccncc4)s3)c3ccccc3NC2C=C1 (stereo not drawn) [6f, 7-methyl-N-(5-(pyridin-4-yl)-1,3,4-thiadiazol-2-yl)-10,10a-dihydroacridin-9(8aH)-imine]	45.4 ± 2.18	12.3 ± 1.96	55.7 ± 3.28	276 to 278	40.3 ± 2.19	13.9 ± 1.37	37.2 ± 2.12	
CC1=CC2C(=Nc3nnc(-c4ccc(Cl)cc4)s3)c3ccccc3NC2C=C1 (stereo not drawn) [6j, 7-methyl-N-(5-(4-chlorophenyl)-1,3,4-thiadiazol-2-yl)-10,10a-dihydroacridin-9(8aH)-imine]	56.2 ± 3.16	13 ± 1.89	13.9 ± 1.83	258 to 260	48.5 ± 3.06	15.5 ± 1.98	51.2 ± 3.09	
